Patent publication US9962341B2, “Active pharmaceutical ingredient (API) comprising cannabinoids for use in the treatment of cancer” (GW Pharma Limited, priority 2014, dated 2018)
Where two headings read alike, the source gives them in different places.

Test system: ACHN
Experiment: Cell viability (CellTiter-Blue, 72 h), ACHN renal cancer cells
Format: cell-based
Conditions: Homo sapiens
Method: The following cell lines were tested in this example: Lung Cancer (A549, NCI-H460); Pancreatic cancer (PANC1, Mia-Pa-Ca-2); Melanoma (WM115, A375); Ovarian cancer (OVCAR3, SKOV3); Gastric cancer (MKN45, HGC-27); Renal cancer (ACHN) and Bladder Cancer (RT112).
Each tumour cell line was maintained in vitro in RPMI 1640+10% heat inactivated FBS and 2 mM L-glutamine (growth media) at 37° C. in 5% CO2 and humidified conditions. The cells were harvested, washed, re-suspended into growth medium and counted. The cells were re-suspended into assay media (RPMI 1640+5% heat inactivated FBS+ and 2 mM L-glutamine) at 4×10^4 cells/ml (dependent upon cell type) and plated into the middle 240 wells of 384 well tissue culture plates (Corning CellBind, black-wall plates) 25 μl/well aliquots; 50 μl of growth media was aliquoted into the outer wells. There were 3 plates for each cell line.
The plates were incubated overnight at 37° C., in 5% humidified CO2.
The phytocannabinoid test compounds were prepared in 100% DMSO vehicle at a stock concentration of 20 and 40 mM.
Starting with the 20 mM stock in DMSO, this was serially diluted (2 fold) in DMSO in a 96-well plate, to 20 (no dilution), 10, 5, 2.5, 1.25, 0.625, 0.315, 0.157 and […]. Following this, 10 ul of each compound dilution was diluted into 990 ul of 1% (v/v) FBS media in a deep well block making the final concentrations of 200, 100, 50, 25, 12.5, 6.25, 3.125, 1.56 and 0.79 μM (2× final assay concentrations and 1% DMSO).
An equal volume of each cannabinoid in the combination (stock concentration 40 mM) was mixed together to make a stock of 20 mM of each cannabinoid in DMSO. This was serially diluted (2 fold) in DMSO in a 96-well plate, to 20 (no dilution), 10, 5, 2.5, 1.25, 0.625, 0.315, 0.157 and […]. Following this, 10 ul of each combination dilution was diluted into 990 ul of 1% (v/v) FBS media in a deep well block making the final concentrations of 200, 100, 50, 25, 12.5, 6.25, 3.125, 1.56 and 0.79 μM (2× final assay concentrations and 1% DMSO).
Taxotere SOC was prepared in 100% DMSO to give a stock concentration of 10 mM. This was diluted in DMSO from the stock solution to 200 μM, then serially diluted (3-fold) in DMSO to 200 (no dilution), 66.66, 22.22, 7.41, 2.47, 0.82, 0.27, 0.09, 0.03 μM. 10 ul of each of the taxotere dilutions was diluted in 990 ul of 1% (v/v) FBS media making the final concentrations of 2, 0.67, 0.22, 0.074, 0.0247, 0.0082, 0.0027 0.0009, 0.0003 μM (2× final assay concentrations and 1% DMSO).
The plates were incubated for 72 h at 37° C. in 5% humidified CO2. To develop the plates, at 72 h, 10 μl of CellTiter-Blue™ reagent was added to each test/blank well.
The plates were incubated at 37° C., 5% humidified CO2. Fluorescence was measured using a Flex II Station plate reader (570 nm excitation wavelength, 600 nm emission wavelength, 590 nm cut-off) after 3 h.
The phytocannabinoid compounds CBD, CBGA, CBG, CBDA, THCV and THC were tested on a panel of lung (A549, NCI-H460), pancreatic (PANC1, Mia-Pa-Ca-2), melanoma (WM115, A375), ovarian (OVCAR3, SKOV3), gastric (MKN45, HGC-27), renal (ACHN) and bladder (RT112) cancer cell lines according to the protocol for 72 h in media containing 1% FBS.
The IC50 values for each phytocannabinoid and combination of CBD with the other phytocannabinoids was calculated for each cell line. The raw data values expressed in relative fluorescent units were normalised to the vehicle for each individual plate and any reduction in fluorescence indicated a decrease in viability.
This calculation was as described in Example 1 above.

[1] = 72 h, read-out: Cell line IC50 value
[2] = read-out: Dm (potency, median effect)

SMILES	IC50 [1]	IC50 [2]
C=C(C)[C@@H]1CCC(C)=C[C@H]1c1c(O)cc(CCCCC)cc1O [CBD, Cannabidiol]	3.3 µM	3.11 µM
C=C(C)[C@@H]1CCC(C)=C[C@H]1c1c(O)cc(CCCCC)c(C(=O)O)c1O [CBDA, Cannabidiolic acid]	10.7 µM	8.44 µM
CCCCCc1cc(O)c(C/C=C(\C)CCC=C(C)C)c(O)c1 [CBG, Cannabigerol]	3 µM	2.96 µM
CCCCCc1cc(O)c(C/C=C(\C)CCC=C(C)C)c(O)c1C(=O)O [CBGA, Cannabigerolic acid]	11.6 µM	12 µM
CCCCCc1cc(O)c2c(c1)OC(C)(C)[C@@H]1CCC(C)=C[C@@H]21 [THC, Tetrahydrocannabinol, reference compound]	3.6 µM	4.4 µM
CCCc1cc(O)c2c(c1)OC(C)(C)[C@@H]1CCC(C)=C[C@@H]21 [THCV, Tetrahydrocannabivarin]	6.8 µM	6.76 µM
CC(=O)O[C@@]12CO[C@@H]1C[C@H](O)[C@@]1(C)C(=O)[C@H](O)C3=C(C)[C@@H](OC(=O)[C@H](O)[C@@H](NC(=O)OC(C)(C)C)c4ccccc4)C[C@@](O)([C@@H](OC(=O)c4ccccc4)[C@H]21)C3(C)C [Taxotere, Docetaxel, reference compound]	0.0018 µM	
